Consider four molecules from ChEMBL document CHEMBL1201862, “PubChem BioAssay data set” (2004).

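Method: 48-hour compound exposure of cells in 96-well plates, five concentrations, linear interpolation of endpoints. The concentration for 50% growth inhibition is given as GI50.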 Calls of active or inactive are those of the source. Cut-off read from the data, not from the text of the source: active = GI50 up to about 1.1 µM and inactive = higher. Bounds are passed on as bounds.

Test systems include A498; A549; CAKI-1; DMS-114; HCT-15; HOP-92; K562; MOLT-4; Malme-3M; NCI-H23; NCI-H460; NCI-H522; RPMI-8226; RXF 393; SF-539; SK-MEL-5; SNB-19; SNB-78; SW-620; SR.
Assay in all cases: inhibition of tumour cell growth, NCI panel, 48 h

For `CC1(CO)C(O)CCC2(C)C1C(O)CC1CC3CC12CCC3(O)CO` (centres undefined), the GI50 was > 225 µM (inactive) in the experiment on A498; > 225 µM (inactive) with A549; > 225 µM (inactive) with CAKI-1; > 225 µM (inactive) in the experiment with DMS-114; greater than 225 µM with HCT-15; > 225 µM (inactive) in the experiment with HOP-92. The GI50 in the experiment with K562 was > 225 µM (inactive); in the experiment on MOLT-4 it was > 96.6 µM (inactive); in the experiment on Malme-3M, > 225 µM (inactive); in the experiment with NCI-H23 it was > 225 µM (inactive); in the experiment with NCI-H460, 77.1 µM (inactive); with NCI-H522 it was > 225 µM (inactive). For the same molecule, the GI50 is > 158 µM (inactive) in the experiment with RPMI-8226; > 225 µM (inactive) in the experiment with RXF 393; > 225 µM (inactive) in the experiment on SF-539; > 225 µM (inactive) in the experiment on SK-MEL-5; > 225 µM (inactive) with SNB-19; > 225 µM (inactive) in the experiment with SNB-78. In addition, the GI50 in the experiment with SW-620 is > 225 µM (inactive).
With `CCOCC(=O)N(C)c1cccc2c3c(n(C)c12)CCCCC3`, the GI50 with A498 is > 100 µM (inactive); with A549, > 100 µM (inactive); with CAKI-1, 0.798 µM (active); in the experiment with DMS-114, > 100 µM (inactive); in the experiment on HCT-15 it was greater than 100 µM; with HOP-92 it was > 94.8 µM (inactive). Also, the GI50 in the experiment with K562 is > 62.4 µM (inactive); in the experiment on MOLT-4, > 61.5 µM (inactive); with Malme-3M, > 100 µM (inactive); in the experiment with NCI-H23, > 100 µM (inactive); in the experiment with NCI-H460, > 100 µM (inactive); in the experiment with NCI-H522, > 100 µM (inactive). Moreover, the GI50 with RXF 393 was > 89.7 µM (inactive); with SF-539, > 100 µM (inactive); in the experiment with SK-MEL-5 it was > 100 µM (inactive); with SNB-19, > 23.8 µM (inactive); in the experiment on SNB-78, > 100 µM (inactive); with SW-620, > 100 µM (inactive).
As to `CC/C(CC(=O)CCC(=O)Nc1ccc(C)c(C)c1)=N\NC(=O)c1cc2ccccc2cc1O`, the GI50 with CAKI-1 was 20.8 µM (inactive); in the experiment with DMS-114, 32.9 µM (inactive); in the experiment on HCT-15, 13.9 µM; with HOP-92, 31.2 µM (inactive); in the experiment with K562, 21.8 µM (inactive); in the experiment with MOLT-4, 11.4 µM (inactive). In addition, the GI50 in the experiment on Malme-3M was 24.8 µM (inactive); in the experiment with NCI-H23, 23.6 µM (inactive); in the experiment on NCI-H460, 23.6 µM (inactive); in the experiment on RXF 393, 15.1 µM (inactive); with SNB-19 it was 39.1 µM (inactive); in the experiment with SNB-78 it was 48.5 µM (inactive). Besides, the GI50 in the experiment on SR is 18 µM (inactive); in the experiment with SW-620, 30.2 µM (inactive).
As for `O=C1C=C2SC3C[C@@]24CC1(O)[N+]1=c2c4c(c(O)c4c2=C(C=N4)CC1)N3`, the GI50 is 1.88 µM (inactive) with A498; 2 µM (inactive) in the experiment with A549; 2.24 µM (inactive) with CAKI-1; 0.219 µM (active) with DMS-114; 1.64 µM in the experiment on HCT-15; 1.35 µM (inactive) in the experiment with HOP-92. The GI50 was 0.64 µM (active) in the experiment on K562; 0.268 µM (active) in the experiment with MOLT-4; 1.3 µM (inactive) in the experiment with NCI-H23; 2.07 µM (inactive) in the experiment on NCI-H460; 0.296 µM (active) in the experiment on NCI-H522; 0.457 µM (active) with RPMI-8226. Besides, the GI50 is 1.35 µM (inactive) in the experiment on RXF 393; 1.51 µM (inactive) with SF-539; 1.5 µM (inactive) in the experiment on SK-MEL-5; 1.74 µM (inactive) in the experiment with SNB-19; 1.61 µM (inactive) with SNB-78; 0.33 µM (active) in the experiment with SW-620.
